# Earlier results as cited in patent US10898452B2, “Stable formulation for parenteral administration of Tapentadol” (Gruenenthal GmbH, priority 2016, dated 2021).
# Settings: more pronounced at higher pH values
structure (smiles),measurement,value
"CC[C@@H](c1cccc(O)c1)[C@@H](C)CN(C)C [Tapentadol, (1R,2R)-3-(3-dimethylamino-1-ethyl-2-methyl-propyl)-phenol]",antimicrobial properties,exhibits antimicrobial properties
